Assay results from patent publication US20140057788A1, “METHODS OF INHIBITING ETHYLENE RESPONSES IN PLANTS USING DICYCLOPROPENE COMPOUNDS” (North Carolina State University, priority 2007, published 2014).

Experiments:
[1] = test system: ethylene responses; test: Anti-ethylene activity when applied as a gas; assay type: in vivo
[2] = Volatility; assay type: physicochemical
[3] = test system: bananas; test: Protection of bananas from ethylene responses; assay type: in vivo, banana
[4] = test system: pea plants; test: Effect on etiolated pea plant growth in the presence of ethylene; assay type: in vivo; conditions: pea plants grown in the presence of 1 ppm of ethylene, FIG. 1
Description: FIG. 1. Effect of 1,6-dicyclopropenyl-hexane on etiolated plea plant growth.

C1=C(CCCCCCC2=CC2)C1 [1,6-dicyclopropenyl-hexane]
active concentration ([1]; applied as a gas): 0.3 nL L^−1 | efficiency at different temperatures ([1]; in vivo): work efficiently at different temperatures | volatility [2]: volatile | duration of protection from ethylene responses [3]: at least 42 days | anti-ethylene activity (pea plant growth) [4]: significant anti-ethylene activity
